Laboratory results taken from patent publication US11584714B2 (priority 2018, dated 2023).
pIC50, pKi: −log10 of the molar value. Counter-ions that a name gives are not always drawn. Like-named read-outs stand apart in the source and are kept apart here.

Legend:
Type in all cases: biochemical
Lectin Pathway = assay: Lectin pathway activation assay in human serum (mannan-coated ELISA, C3c detection); details: 1% human serum
human α-thrombin = human α-thrombin (Homo sapiens (Human), UniProt P00734); assay: Enzymatic assay for thrombin (Boc-VPR-AMC substrate); details: for pKi: read-out: Thrombin Ki; for Ki: Thrombin Ki (μM)
mMASP-2 = mMASP-2 (Mus musculus (Mouse), UniProt Q91WP0); assay: Enzymatic inhibition of mMASP-2
MASP-2 (CCP1-CCP2-SP) = MASP-2 (CCP1-CCP2-SP) (Homo sapiens (Human), UniProt O00187); assay: biochemical; details: for pKi: read-out: MASP-2 Ki
[1] = selectivity for MASP-2 inhibition versus thrombin

Sequence of mMASP-2 (Q91WP0 20-685): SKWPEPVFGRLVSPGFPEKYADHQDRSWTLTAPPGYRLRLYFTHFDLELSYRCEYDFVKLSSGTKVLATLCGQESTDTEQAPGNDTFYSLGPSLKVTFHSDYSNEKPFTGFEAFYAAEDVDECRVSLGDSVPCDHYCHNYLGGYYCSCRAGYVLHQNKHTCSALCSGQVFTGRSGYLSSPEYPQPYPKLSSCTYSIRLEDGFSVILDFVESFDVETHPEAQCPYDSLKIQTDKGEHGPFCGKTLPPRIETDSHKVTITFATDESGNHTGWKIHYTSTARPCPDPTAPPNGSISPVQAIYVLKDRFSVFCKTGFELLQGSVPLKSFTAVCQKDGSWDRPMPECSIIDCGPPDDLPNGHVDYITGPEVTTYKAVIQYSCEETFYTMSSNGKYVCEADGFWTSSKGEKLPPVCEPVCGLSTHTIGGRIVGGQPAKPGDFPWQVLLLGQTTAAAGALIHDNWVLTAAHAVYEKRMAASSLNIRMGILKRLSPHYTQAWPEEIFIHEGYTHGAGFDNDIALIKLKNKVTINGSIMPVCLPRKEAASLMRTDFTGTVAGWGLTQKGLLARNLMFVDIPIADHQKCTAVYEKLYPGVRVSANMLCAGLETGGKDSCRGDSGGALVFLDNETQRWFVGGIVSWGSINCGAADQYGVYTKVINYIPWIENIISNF
Sequence of MASP-2 (CCP1-CCP2-SP) (O00187 445-686): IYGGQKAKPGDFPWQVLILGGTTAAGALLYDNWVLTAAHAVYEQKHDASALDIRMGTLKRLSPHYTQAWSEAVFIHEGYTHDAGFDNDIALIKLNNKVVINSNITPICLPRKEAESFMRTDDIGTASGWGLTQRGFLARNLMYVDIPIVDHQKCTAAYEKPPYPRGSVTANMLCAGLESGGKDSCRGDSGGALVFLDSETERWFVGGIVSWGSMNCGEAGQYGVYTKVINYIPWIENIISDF

Structure (SMILES) | pIC50 (Lectin Pathway) | pKi (human α-thrombin) | pKi (mMASP-2; read-out: mMASP-2 Ki) | MASP-2 vs. thrombin selectivity (MASP-2 (CCP1-CCP2-SP); MASP-2 inhibition versus thrombin) | pKi (MASP-2 (CCP1-CCP2-SP)) | Ki (human α-thrombin) [µM] | MASP-2 vs. thrombin selectivity (MASP-2 (CCP1-CCP2-SP); [1]) | pKi (mMASP-2)
Cc1c(Cl)cccc1CC[C@@H](N)C(=O)N[C@@H](C)C(=O)NCc1ccc(C(=N)N)cc1 [compound 1103] | 6.30 to 7.30 | > 6.30 | > 6.30 | ** (5.0 to 25-fold) | > 6.30 |  |  | 
Cc1[nH]c(C(=O)N[C@@H](C)C(=O)NCc2ccc(C(=N)N)cc2)cc1-c1ccccc1 [compound 1239, (S)—N-(1-((4-Carbamimidoylbenzyl)amino)-1-oxopropan-2-yl)-5-methyl-4-phenyl-1H-pyrrole-2-carboxamide] | 5.30 to 6.30 |  | > 6.30 |  | > 6.30 | 2.5 to 10 | ** (≥5.0 to <25-fold) | 
Cc1nc(N)ccc1CNC(=O)[C@H](C)NC(=O)[C@H]1C[C@@H](c2ccccc2)CCN1 [compound 1253, (2R,4S)—N—((S)-1-(((6-Amino-2-methylpyridin-3-yl)methyl)amino)-1-oxopropan-2-yl)-4-phenylpiperidine-2-carboxamide] | 6.30 to 7.30 | < 4.60 |  |  | > 6.30 |  |  | 5.60 to 6.30
Cc1nc(N)ccc1CNC(=O)[C@H](C)NC(=O)[C@H]1C[C@H](Cc2cccc3ccccc23)CN1 [compound 1324, (2R,4S)—N—((S)-1-(((6-Amino-2-methylpyridin-3-yl)methyl)amino)-1-oxopropan-2-yl)-4-(naphthalen-1-ylmethyl)pyrrolidine-2-carboxamide Di-trifluoroacetate salt] | 6.30 to 7.30 |  | > 6.30 |  | > 6.30 | 0.5 to 2.5 | *** (≥25 to <100-fold) | 
Cc1nc(N)ccc1CNC(=O)[C@H](C)NC(=O)[C@H]1C[C@H](Cc2cccc(Cl)c2)CN1 [compound 1328, (2R,4S)—N—((S)-1-(((6-amino-2-methylpyridin-3-yl)methyl)amino)-1-oxopropan-2-yl)-4-(3-chlorobenzyl)pyrrolidine-2-carboxamide Dihydrochloride] | 6.30 to 7.30 |  | > 6.30 |  | > 6.30 | 0.5 to 2.5 | **** (≥100-fold) | 
Cc1cc(C)cc(C[C@@H]2CN[C@@H](C(=O)N[C@@H](C)C(=O)NCc3ccc(N)nc3C)C2)c1 [compound 1331, (2R,4S)—N—((S)-1-(((6-amino-2-methylpyridin-3-yl)methyl)amino)-1-oxopropan-2-yl)-4-(3,5-dimethylbenzyl)pyrrolidine-2-carboxamide Dihydrochloride] | 6.30 to 7.30 | < 4.60 | > 6.30 |  | > 6.30 |  | **** (≥100-fold) | 
Cc1cccc(C[C@@H]2CN[C@@H](C(=O)N[C@@H](C)C(=O)NCc3ccc(N)nc3C)C2)c1 [compound 1337, (2R,4S)—N—((S)-1-(((6-amino-2-methylpyridin-3-yl)methyl)amino)-1-oxopropan-2-yl)-4-(3-methylbenzyl)pyrrolidine-2-carboxamide dihydrochloride] | 5.30 to 6.30 |  | > 6.30 |  | > 6.30 | 0.5 to 2.5 | **** (≥100-fold) | 
C[C@H](NC(=O)[C@@H](CCc1ccccc1)NCCc1ccc(Cl)cc1)C(=O)NCc1ccc(C(=N)N)cc1 [compound 1339, (R)—N—((S)-1-((4-Carbamimidoylbenzyl)amino)-1-oxopropan-2-yl)-2-((4-chlorophenethyl)amino)-4-phenylbutanamide Di-trifluoroacetate salt] | > 7.30 | > 6.30 | > 6.30 |  | > 6.30 |  | ** (≥5.0 to <25-fold) | 
CC(=O)Nc1ccc(CCN[C@H](CCc2ccccc2)C(=O)N[C@@H](C)C(=O)NCc2ccc(C(=N)N)cc2)cc1 [compound 1345, (R)-2-((4-acetamidophenethyl)amino)-N-((S)-1-((4-carbamimidoylbenzyl)amino)-1-oxopropan-2-yl)-4-phenylbutanamide dihydrochloride] | > 7.30 | > 6.30 | > 6.30 |  | > 6.30 |  | **** (≥100-fold) | 
